Drawing on patent US10174038B2, “Compounds and methods for antiviral treatment” (Gilead Sciences, Inc., priority 2012, dated 2019), this text covers inhibition for 45 compounds.

Each structure is given as a SMILES string.

The assay deals with RSV strain A2. The assay can be described thus: RSV antiviral activity, in vitro cytoprotection assay in Hep2 cells. Type of assay: cell-based, Respiratory Syncytial Virus (RSV). Particulars: human respiratory syncytial virus, HEp-2; 0.5 μM compound; RSV-induced cytopathic effect in Hep2 cells; % inhibition calculated from fitted 4-parameter dose response curve, normalized to 0% and 100%; read-out: Percent inhibition at 0.5 μM. As to the method:
Antiviral activity against RSV was determined using an in vitro cytoprotection assay in Hep2 cells. […] The method used was similar to methods previously described in published literature (Chapman et al., Antimicrob Agents Chemother. 2007, 51(9):3346-53.)
Hep2 cells were obtained from ATCC (Manassas, Va.) and maintained in MEM media supplemented with 10% fetal bovine serum and penicillin/streptomycin. Cells were passaged twice a week and kept at subconfluent stage. Commercial stock of RSV strain A2 (Advanced Biotechnologies, Columbia, Md.) was titered before compound testing to determine the appropriate dilution of the virus stock that generated desirable cytopathic effect in Hep2 cells.
For antiviral tests, Hep2 cells were seeded into 96-well plates 24 hours before the assay at a density of 3,000 cells/well. On a separate 96 well plate, compounds to be tested were serially diluted in cell culture media. Eight concentrations in 3-fold serial dilution increments were prepared for each tested compound and 100 uL/well of each dilution was transferred in duplicate onto plates with seeded Hep2 cells. Subsequently, appropriate dilution of virus stock previously determined by titration was prepared in cell culture media and 100 uL/well was added to test plates containing cells and serially diluted compounds. Each plate included three wells of infected untreated cells and three wells of uninfected cells that served as 0% and 100% virus inhibition control, respectively. Following the infection with RSV, testing plates were incubated for 4 days in a tissue culture incubator. After the incubation, RSV-induced cytopathic effect was determined using a Cell TiterGlo reagent (Promega, Madison, Wis.) followed by a luminescence read-out. The percentage inhibition was calculated for each tested concentration relative to the 0% and 100% inhibition controls and the EC50 value for each compound was determined by non-linear regression as a concentration inhibiting the RSV-induced cytopathic effect by 50%. Ribavirin (purchased from Sigma, St. Louis, Mo.) was used as a positive control for antiviral activity.
Compounds were also tested for antiviral activity against RSV in Hep2 cells using a 384 well format. Compounds were diluted in DMSO using a 10-step serial dilution in 3-fold increments via automation in 4 adjacent replicates each. Eight compounds were tested per dilution plate. 0.4 uL of diluted compounds were then stamped via Biomek into 384-well plates (Nunc 142761 or 164730 w/lid 264616) containing 20 μL of media (Mediatech Inc. MEM supplemented with Glutamine, 10% FBS and Pen/Strep). DMSO and a suitable positive control compound, such as 80 μM GS-329467 or 10 μM 427346 was used for the 100% and 0% cell killing controls, respectively.
Hep2 cells (1.0×10^5 cells/ml) were prepared as above in batch to at least 40 mls excess of the number of sample plates (8 mls cell mix per plate) and infected with vendor supplied (ABI) RSV strain A2 to arrive at an MOI of 1:1000 (virus:cell #) or 1:3000 (vol virus:cell vol). Immediately after addition of virus, the RSV infected Hep2 cell suspension was added to each stamped 384-well plate at 20 μl per well using a uFlow dispenser, giving a final volume of 40 μL/well, each with 2000 infected cells. The plates were then incubated for 5 days at 37° C. and 5% CO2. Following incubation, the plates were equilibrated to room temperature in a biosafety cabinet hood for 1.5 hrs and 40 μL of Cell-Titer Glo viability reagent (Promega) was added to each well via uFlow. Following a 10-20 minute incubation, the plates were read using an EnVision or Victor Luminescence plate reader (Perkin-Elmer). The data was then uploaded and analyzed on the Bioinformatics portal under the RSV Cell Infectivity and 8-plate EC50-Hep2-384 or 8-plate EC50-Hep2-Envision protocols. […]
Usually inhibition stands for the percentage by which the read-out fell short of the control. Take `O=C(c1ccccc1C(F)(F)F)N1CCCC[C@H]1c1cc2nc(N3CC(O)C3)cc(N3CC(O)C3)n2n1` [Compound 50]: the inhibition at 0.5 µM is 100%. In the case of `Cc1ccc(NS(C)(=O)=O)c(C(=O)N2CCCC[C@H]2c2cc3nc(C)cc(C)n3n2)c1` [Compound 52], the inhibition at 0.5 µM is 99%.

`CN1CCN(c2cc(N3CC(N)C3)nc3cc([C@@H]4CCCCN4C(=O)c4cc(Cl)ccc4NS(C)(=O)=O)nn23)CC1` [Compound 53]: the inhibition at 0.5 µM was 99%. Consider `O=C(c1cc(Cl)ccc1NS(=O)(=O)CC(F)(F)F)N1CCCC[C@H]1c1cc2nc(N3CCC3)cc(N3CCNCC3)n2n1` [Compound 55], for which the inhibition at 0.5 µM is 98%. For `CS(=O)(=O)Nc1ccc(Cl)cc1C(=O)N1CCCC[C@H]1c1cc2nc(C3CNC3)cc(N3CCOCC3)n2n1` [Compound 56] the value was 93%; for `CS(=O)(=O)Nc1ccc(Cl)cc1C(=O)N1CCCC[C@H]1c1cc2nc(C3CCCC3)cc(N3CCOCC3)n2n1` [Compound 57], 93%. With `Cc1nc2cc([C@@H]3CCCCN3C(=O)c3cc(F)ccc3NS(C)(=O)=O)nn2c(C)c1C` [Compound 58], the inhibition at 0.5 µM was 89%.

In the case of `CN1CCN(c2cc(C3CC3)nc3cc([C@@H]4CCCCN4C(=O)c4cc(Cl)ccc4NS(C)(=O)=O)nn23)CC1` [Compound 59], the inhibition at 0.5 µM was 92%. Regarding `Cc1cc(N(C)CCO)nc2cc([C@@H]3CCCCN3C(=O)c3cc(Cl)ccc3NS(C)(=O)=O)nn12` [Compound 60], the inhibition at 0.5 µM is 87%. Take `Cc1cn2nc([C@@H]3CCCCN3C(=O)c3cc(Cl)ccc3NS(=O)(=O)N(C)C)cc2nc1N1CC[C@H](N)C1` [Compound 61]: the inhibition at 0.5 µM was 100%.

As to `Cc1cn2nc([C@@H]3CCCCN3C(=O)c3cc(Cl)ccc3NC(=O)c3ccccc3)cc2nc1N1CC[C@H](N)C1` [Compound 62], the inhibition at 0.5 µM is 100%. Regarding `Cc1cn2nc([C@@H]3CCCCN3C(=O)c3cc(Cl)ccc3NC(=O)OCC(F)(F)F)cc2nc1N1CC[C@H](N)C1` [Compound 63], the inhibition at 0.5 µM is 100%. On to `Cc1cn2nc([C@@H]3CCCCN3C(=O)c3cc(Cl)ccc3NC(=O)N(C)C)cc2nc1N1CC[C@H](N)C1` [Compound 64], for which the inhibition at 0.5 µM is 100%. In the case of `Cc1cn2nc([C@@H]3CCCCN3C(=O)c3cc(Cl)ccc3NC(=O)C(F)F)cc2nc1N1CC[C@H](N)C1` [Compound 65], the inhibition at 0.5 µM was 100%.

`Cc1cc(C)nc(C(=O)N2CCCC[C@H]2c2cc3nc(N4CC[C@H](N)C4)c(C)cn3n2)c1` [Compound 66]: the inhibition at 0.5 µM was 100%. Turning to `Cc1cn2nc([C@@H]3CCCCN3C(=O)c3cccc(C(F)(F)F)n3)cc2nc1N1CC[C@H](N)C1` [Compound 67], the inhibition at 0.5 µM was 99%. Take `CC(C)OC(=O)Nc1ccc(Cl)cc1C(=O)N1CCCC[C@H]1c1cc2nc(N3CCC3)cc(N3CCN(C(=O)OC(C)(C)C)CC3)n2n1` [Compound 68]: the inhibition at 0.5 µM is 100%.

Turning to `CC(C)OC(=O)Nc1ccc(Cl)cc1C(=O)N1CCCC[C@H]1c1cc2nc(N3CCC3)cc(N3CCNCC3)n2n1` [Compound 69], the inhibition at 0.5 µM was 99%. For `CS(=O)(=O)Nc1ccc(Cl)cc1C(=O)N1CCCC[C@H]1c1cc2nc(N3CCC3)cc(N3CCCC(N)C3)n2n1` (stereo partly drawn) [Compound 70] the value was 100%; for `CS(=O)(=O)Nc1ccc(Cl)cc1C(=O)N1CCCC[C@H]1c1cc2nc(N3CCC3)cc(N3CC[C@@H](N)C3)n2n1` [Compound 71], 100%; for `CN(C)[C@@H]1CCN(c2cc(N3CCC3)nc3cc([C@@H]4CCCCN4C(=O)c4cc(Cl)ccc4NS(C)(=O)=O)nn23)C1` [Compound 72], 100%. Regarding `Cc1ccc(NS(C)(=O)=O)c(C(=O)N2CCCC[C@H]2c2cc3nc(C4CC4)c(C)cn3n2)c1` [Compound 73], the inhibition at 0.5 µM was 100%. In the case of `Cc1cc(C2CC2)nc2cc([C@@H]3CCCCN3C(=O)c3cc(F)cc(Cl)c3NS(C)(=O)=O)nn12` [Compound 74], the inhibition at 0.5 µM was 97%. With `Cc1cc(C2CC2)nc2cc([C@@H]3CCCCN3C(=O)c3cc(F)ccc3NS(C)(=O)=O)nn12` [Compound 75], the inhibition at 0.5 µM is 100%. For `Cc1ccc(C(=O)N2CCCC[C@H]2c2cc3nc(C4CC4)cc(C)n3n2)c(NS(C)(=O)=O)c1` [Compound 76], the inhibition at 0.5 µM is 99%. For `Cc1cc(C2CC2)nc2cc([C@@H]3CCCCN3C(=O)c3cc(Cl)ccc3N)nn12` [Compound 77], the inhibition at 0.5 µM was 94%.

Consider `Cc1nc2cc([C@@H]3CCCCN3C(=O)c3cc(Cl)ccc3NS(C)(=O)=O)nn2c(N2CCC2)c1C` [Compound 78], for which the inhibition at 0.5 µM was 99%. As for `Cc1ccc(NS(C)(=O)=O)c(C(=O)N2CCCC[C@H]2c2cc3nc(C)c(C)c(N4CCC4)n3n2)c1` [Compound 79], the inhibition at 0.5 µM is 100%.

Turning to `CCc1ccc(NS(C)(=O)=O)c(C(=O)N2CCCC[C@H]2c2cc3nc(C4CC4)cc(N4CCOCC4)n3n2)c1` [Compound 80], the inhibition at 0.5 µM was 99%.

Take `Cc1ccc(NS(C)(=O)=O)c(C(=O)N2CCCC[C@H]2c2cc3nc(C)c(C)cn3n2)c1` [Compound 81]: the inhibition at 0.5 µM is 100%. Take `CC(=O)Nc1ccc(C)c(Br)c1C(=O)N1CCCC[C@H]1c1cc2nc(C)c(C)c(C)n2n1` [Compound 83]: the inhibition at 0.5 µM is 100%.

On to `CN[C@@H]1CCN(c2cc(C)n3nc([C@@H]4CCCCN4C(=O)c4cc(Cl)ccc4NS(C)(=O)=O)cc3n2)C1` [Compound 84], for which the inhibition at 0.5 µM was 95%. The value for `CS(=O)(=O)Nc1ccc(Cl)cc1C(=O)N1CCCC[C@H]1c1cc2nc(C3CC3)ccn2n1` [Compound 85] was 86%.

Regarding `CC(=O)Nc1ccc(C)cc1C(=O)N1CCCC[C@H]1c1cc2nc(N3CCC[C@H](N)C3)c(C)cn2n1` [Compound 86], the inhibition at 0.5 µM is 84%. Regarding `CC(=O)Nc1ccc(C)cc1C(=O)N1CCCC[C@H]1c1cc2nc(N3CC(NC(=O)OC(C)(C)C)C3)c(C)cn2n1` [Compound 87], the inhibition at 0.5 µM was 89%. The value for `Cc1cn2nc([C@@H]3CCCCN3C(=O)c3cc(Cl)ccc3NS(C)(=O)=O)cc2nc1N1CCC[C@H](N)C1` [Compound 88] was 89%; that for `CS(=O)(=O)Nc1ccc(Cl)cc1C(=O)N1CCCC[C@H]1c1cc2nc(N3CC(CO)C3)cc(N3CCOCC3)n2n1` [Compound 89] was 90%. On to `CS(=O)(=O)Nc1ccc(Cl)cc1C(=O)N1CCCC[C@H]1c1cc2nc(N3CCCC3)cc(N3CCOCC3)n2n1` [Compound 90], for which the inhibition at 0.5 µM is 100%.

For `CNc1cc(N2CCOCC2)n2nc([C@@H]3CCCCN3C(=O)c3cc(Cl)ccc3NS(C)(=O)=O)cc2n1` [Compound 91], the inhibition at 0.5 µM was 91%. Take `CN(C)c1cc(N2CCOCC2)n2nc([C@@H]3CCCCN3C(=O)c3cc(Cl)ccc3NS(C)(=O)=O)cc2n1` [Compound 92]: the inhibition at 0.5 µM was 98%. The value for `CS(=O)(=O)Nc1ccc(Cl)cc1C(=O)N1CCCC[C@H]1c1cc2nc(N3CC[C@@H](F)C3)cc(N3CCOCC3)n2n1` [Compound 93] was 56%; that for `CNC1CCN(c2cc(N3CCOCC3)n3nc([C@@H]4CCCCN4C(=O)c4cc(Cl)ccc4NS(C)(=O)=O)cc3n2)C1` (stereo partly drawn) [Compound 94] was 89%; that for `CS(=O)(=O)Nc1ccc(Cl)cc1C(=O)N1CCCC[C@H]1c1cc2nc(N3CC[C@@H](N)C3)cc(N3CCOCC3)n2n1` [Compound 95] was 99%. Consider `CS(=O)(=O)Nc1ccc(Cl)cc1C(=O)N1CCCC[C@H]1c1cc2nc(N3CC[C@H](O)C3)cc(N3CCOCC3)n2n1` [Compound 96], for which the inhibition at 0.5 µM is 90%. In the case of `Cc1cn2nc([C@@H]3CCCCN3C(=O)c3cc(Cl)ccc3NS(C)(=O)=O)cc2nc1N1CC(C#N)C1` [Compound 97], the inhibition at 0.5 µM was 97%.
